Test results published in patent publication US20250270206A1, “COMPOSITIONS AND METHODS FOR INHIBITION OF RAS” (TheRas, Inc., priority 2022, published 2025).
pIC50: −log10 of the molar value.

Key:
[1] = target: T1, GTP-loaded KRAS4b (amino acids 1-169) G12C/C118S (Homo sapiens, UniProt P01116, C118S/G12C); experiment: MALDI-TOF MS covalent Cys12 modification, GTP-loaded KRAS G12C; type: binding; conditions: 15 minutes reaction time, 1 μM protein, 1:2.5 protein to compound ratio
T1 construct: KRAS4b (amino acids 1-169) G12C/C118S protein; made in house
Method: (§1) MALDI-TOF MS analysis was performed using 1 μM protein target, and 1:2.5 protein to compound ratio was used.
(§2) Reaction: 1 μM of GppNHp, GTP, or GDP-loaded KRAS4b (amino acids 1-169) G12C/C118S protein (produced in-house by Protein Expression Laboratory, FNLCR/Leidos Biomed) in 20 mM 4-(2-hydroxyethyl)-1-piperazineethanesulfonic acid (HEPES) buffer containing 150 mM NaCl, 1 mM MgCl2, pH 7.3 was prepared freshly before assay. Ten-μL aliquots of protein were dispensed onto low volume 384-well plate, then 375 nL DMSO, and 25 nL of tested compounds from 5 mM DMSO stocks were added to appropriate wells using ECHO 555 acoustic liquid handler (Labcyte Inc.). For each reaction/assay, three blanks were prepared by mixing 10 μL of protein solution with 400 nL DMSO. The contents of the wells were carefully mixed by aspiration, and then each plate was sealed with an adhesive cover, centrifuged at 2000 g for 1 minute, and kept in the dark at room temperature until 5 min, 15 min, 30 min, 2 h, or 6 h collections.
(§3) Target pretreatment: Before each assay MALDI target (Bruker MPT 384 ground steel BC) was pre-treated by pipetting on each spot 0.75 μL of saturated sinapinic acid in acetonitrile (ACN).
(§4) Sample preparation: At collection time point, 2 μL of reaction mixtures were pipetted out into 20 μL MALDI matrix solution (saturated solution of sinapinic acid in 1:1 ACN:water solution containing 0.75% trifluoroacetic acid (TFA)) deposited on 384 well polypropylene plate. Resulting solution was mixed by aspiration, centrifuged at 2000 g for 1 minute, then 1 μL aliquots were dispensed on pre-treated MALDI target using Beckman Coulter Biomek FX^P 96/384-Span-8 Laboratory Automation Workstation. Finally, the MALDI target was dried under mild vacuum to produce spots with fine crystalline structure.
(§5) Measurements: MALDI-TOF measurements were performed on a Bruker Daltonics rapifleX Tissuetyper TOF-TOF mass spectrometer using linear mode and mass range from 18.6 to 21.6 kDa. Detector gain was set to 3.3× (483 V), sample rate to 5 GS/s, real time smoothing to medium (175 MHz), laser smart beam pattern was set to: “MS Thin Layer M5”, and the laser frequency was 10000 Hz. Spectra were automatically collected using custom AutoXecute method. Laser power was auto adjusted using fuzzy control. The peak selection range was set to be between 19000 and 21500 Da. Peak evaluation uses half width parameter set to be smaller than 40 Da for processed spectrograms (centroid peak detection: smoothed by SavitzkyGolay algorithm using 7 m/z width and 2 cycles; baseline was subtracted using median algorithm with flatness 1 and median level 0.01). Fuzzy control used Proteins/Oligonucleotides protocol with minimum half width 1/10 times above threshold. Up to 40000 satisfactory shots were collected in 10000 shot steps. Dynamic termination was implemented to finish data collection when peak signal/noise ratio reached a value of 50.
(§6) Spectra processing: Spectra were smoothed by SavitzkyGolay algorithm using 7 m/z width and three cycles. Centroid peak detection algorithm was used with signal to noise threshold set to 6, relative intensity threshold 4%, peak width 10 m/z and median baseline subtraction using flatness of 1 and median level of 0.01. Peak intensity and area under the peak were evaluated and recorded for all peaks between 19,300 Da and 21,550 Da.
(§7) Calculation of percent modification: Percent modification was calculated as a ratio of peak height for protein modified by compound to sum of peak height of remaining protein plus peak height for protein modified by compound. If multiple modifications were observed each was calculated as a ratio of peak height for given modification versus sum of peak heights for all observed protein species. Data reported in Table 5 are from the 15 minutes reaction time point.

[2] = target: T2, GppNHp-loaded KRAS4b (amino acids 1-169) G12C/C118S (Homo sapiens, UniProt P01116, C118S/G12C); experiment: MALDI-TOF MS covalent Cys12 modification, GppNHp-loaded KRAS G12C; type: binding; conditions: 15 minutes reaction time, 1 μM protein, 1:2.5 protein to compound ratio
T2 construct: KRAS4b (amino acids 1-169) G12C/C118S protein; made in house
Method: as §1, §2, §3, §4, §5, §6, §7

[3] = target: T3, GDP-loaded KRAS4b (amino acids 1-169) G12C/C118S (Homo sapiens, UniProt P01116, C118S/G12C); experiment: MALDI-TOF MS covalent Cys12 modification, GDP-loaded KRAS G12C; type: binding; conditions: 15 minutes reaction time, 1 μM protein, 1:2.5 protein to compound ratio
T3 construct: KRAS4b (amino acids 1-169) G12C/C118S protein; made in house
Method: as §1, §2, §3, §4, §5, §6, §7

[4] = test system: pERK in NCI-H358 cells; experiment: Cell-based pERK HTRF assay; conditions: Homo sapiens, 0.5 h, 30 min incubation
Method: pERK HTRF assays (Perkin Elmer) were used to determine the effectiveness of compounds of the present disclosure in disrupting KRAS G12C protein/effector signaling in cells.
On Day 1, cells (NCI-H358) were seeded into 96-well plates at 4×10^4 cells/well in complete growth media (RPMI, 10% FBS).
On Day 2, cells were treated with compounds at 0.25% DMSO. The source plate was created with compounds diluted in media at 5-fold the final assay concentration. The compounds were run in a 9-point concentration curve starting at 75 μM, with a 3-fold dilution between concentrations. 20 μL was transferred onto the cell plates (final volume in wells was 100 μL). Plates were harvested after 30 min incubation by aspirating media and adding kit-supplied 1× supplemented lysis buffer to all wells (75 μL per well). Plates were then placed on a plate shaker and incubated at 850 rpm for an additional 30 min.
Antibody mixture solution was prepared by diluting aliquoted d2 and Eu Cryptate antibodies 1:20 in kit supplied detection buffer, then mixed the diluted antibodies solutions (1:1 v:v). 4 μL of this solution was then added to a 384-well detection plate (Perkin Elmer; 6008230).
Samples were homogenized by pipetting up and down and then transferred (16 μL of cell lysates) from the 96-well cell culture plate to two wells of the HTRF 384-well detection plate containing the antibody solution. Plates were centrifuged (524 g for 1 min) and allowed to incubate between 4 and 24 h at room temperature. Maximum signal is reached after 4 h incubation time and remains stable over a period of 24 hours. Therefore, readings can be made between 4 and 24 h of incubation. Plates were centrifuged again (524 g for 1 min) and analyzed on the EnVision plate reader using the following settings: Excitation 320 nm, Bandwidth 75 nm; Emission 615 nm, Bandwidth 85 nm; Gain 100%; Flashes 100; Lag 60 μs.

[5] = target: T4, Avi-KRAS G12C (1-169) GppNHp/RAF1 RBD-3×FLAG (52-151) (Homo sapiens, UniProt P01116, G12C); experiment: KRAS G12C-effector (RAF1 RBD) protein:protein interaction HTRF disruption assay; type: biochemical; conditions: PPI HTRF
T4 construct: Avi-KRAS G12C (1-169) GppNHp
Method: A protein:protein interaction (PPI) Homogeneous Time Resolved Fluorescence (HTRF) assay was used to determine the effectiveness of compounds of the present disclosure in disrupting KRAS G12C protein and effector (RAF1) binding.
The HTRF assay used the following reagents and proteins: 50 nM Avi-KRAS G12C (1-169) GppNHp/RAF1 RBD-3×FLAG (52-151); 75 nM Avi-RAF1 RBD-3×FLAG; Assay Buffer: 50 mM Tris pH 7.5, 100 mM NaCl, 5 mM MgCl2, 0.1% BSA, 0.01% Tween 20, 10% DMSO; Bead Buffer: 50 mM Tris pH 7.5, 0.01% Tween 20; Assay volume: 20 μL (384 well plate-low volume format); and Compound titration: 30-0.02 μM, 3× dilution series.
The HTRF assay employed the following protocol:
Compounds were dispensed in assay plate (384-well, Grenier Bione #784075) using Echo (model 555) with dose response settings: 200 nL final volume, titration from 100 μM as a 10-point dilution series. KRAS proteins were prepared in assay buffer, and dispensed on plates, 5 μL per well, then incubated for 1 h at room temperature, with 700 rpm shaking. RAF1 RBD were prepared in assay buffer, dispensed onto plates, 5 μL per well, and then incubated for 1 h at room temperature, with 700 rpm shaking. Reagent mix was then prepared and dispensed on plates, 10 μL per well, and then incubated for 1 h at room temperature, with 700 rpm shaking.
Plates were analyzed on an Envision plate reader using the following setting: Excitation 320 nm, Bandwidth 75 nm, Emission 615 nm, Bandwidth 85 nm; Gain 100%; Flashes 100; Lag 60 μs. Data was reported as percentage of activity, with DMSO as 100%. Data was plotted and analyzed using Prism 8.

For `C=CC(=O)N1CC[C@@H](N(C)c2nc(OC[C@@]34CCCN3C[C@H](F)C4)nc3nc(-c4ccc(F)c5sc(N)c(C#N)c45)ccc23)C1` [Compound 9, 4-(4-(((R)-1-acryloylpyrrolidin-3-yl)(methyl)amino)-2-(((2R,7aS)-2-fluorotetrahydro-1H-pyrrolizin-7a(5H)-yl)methoxy)pyrido[2,3-d]pyrimidin-7-yl)-2-amino-7-fluorobenzo[b]thiophene-3-carbonitrile], the “GTP-KRAS G12C percent of modification” value [1] was “C (10%≤percent of modification <50%)”, the “GppNHp-KRAS G12C percent of modification” value [2] was “C (10%≤percent of modification <50%)” and the “GDP-KRAS G12C percent of modification” value [3] was “A (percent of modification ≥70%)”. For the same compound, the pIC50 [4] was < 6.00 and the pIC50 [5] was ≥ 6.30.

`C=CC(=O)N1C[C@H](C)N(c2nc(OC[C@@]34CCCN3C[C@H](F)C4)nc3cc(-c4ccc(F)c5sc(N)c(C#N)c45)c(C(F)(F)F)nc23)C[C@H]1C` [Compound 10, 4-(4-((2S,5R)-4-acryloyl-2,5-dimethylpiperazin-1-yl)-2-(((2R,7aS)-2-fluorotetrahydro-1H-pyrrolizin-7a(5H)-yl)methoxy)-6-(trifluoromethyl)pyrido[3,2-d]pyrimidin-7-yl)-2-amino-7-fluorobenzo[b]thiophene-3-carbonitrile] was tested, and the “GTP-KRAS G12C percent of modification” value [1] was “C (10%≤percent of modification <50%)”, the “GppNHp-KRAS G12C percent of modification” value [2] was “A (percent of modification ≥70%)” and the “GDP-KRAS G12C percent of modification” value [3] was “A (percent of modification ≥70%)”. For the same compound, the pIC50 [4] was ≥ 7.00 and the pIC50 [5] was ≥ 6.30.

In the case of `C=CC(=O)N1C[C@@H](F)[C@@H](N(C)c2nc(OC[C@@]34CCCN3C[C@H](F)C4)nc3c(F)c(-c4ccc(F)c5sc(N)c(C#N)c45)ncc23)C1` [Compound 11], the “GTP-KRAS G12C percent of modification” value [1] was “A (percent of modification ≥70%)”, the “GppNHp-KRAS G12C percent of modification” value [2] was “A (percent of modification ≥70%)” and the “GDP-KRAS G12C percent of modification” value [3] was “A (percent of modification ≥70%)”. For the same compound, the pIC50 [4] was ≥ 7.00 and the pIC50 [5] was ≥ 6.30.

For `C=CC(=O)N1C[C@H](F)[C@@H](N(C)c2nc(OC[C@@]34CCCN3C[C@H](F)C4)nc3c(F)c(-c4ccc(F)c5sc(N)c(C#N)c45)ncc23)C1` [Compound 12], the “GTP-KRAS G12C percent of modification” value [1] was “A (percent of modification ≥70%)”, the “GppNHp-KRAS G12C percent of modification” value [2] was “A (percent of modification ≥70%)” and the “GDP-KRAS G12C percent of modification” value [3] was “A (percent of modification ≥70%)”. The pIC50 [4] was ≥ 7.00 and the pIC50 [5] was ≥ 6.30.

`C=CC(=O)N1C[C@H](N(C)c2nc(OC[C@@]34CCCN3C[C@H](F)C4)nc3cc(-c4ccc(F)c5sc(N)c(C#N)c45)c(C(F)(F)F)nc23)C[C@H]1C` [Compound 13] was tested, and the “GTP-KRAS G12C percent of modification” value [1] was “C (10%≤percent of modification <50%)”, the “GppNHp-KRAS G12C percent of modification” value [2] was “C (10%≤percent of modification <50%)” and the “GDP-KRAS G12C percent of modification” value [3] was “C (10%≤percent of modification <50%)”. For the same compound, the pIC50 [4] was ≥ 7.00 and the pIC50 [5] was ≥ 6.30.

`C=CC(=O)N1CC[C@@H](N(C)c2nc(N3CC(N4CC5(CC5)C4)C3)nc3c(F)c(-c4ccc(F)c5sc(N)c(C#N)c45)ncc23)C1` [Compound 14, 2-amino-4-[2-[3-(5-azaspiro[2.3]hexan-5-yl)azetidin-1-yl]-8-fluoro-4-[methyl-[(3R)-1-prop-2-enoylpyrrolidin-3-yl]amino]pyrido[4,3-d]pyrimidin-7-yl]-7-fluoro-benzothiophene-3-carbonitrile] was tested, and the “GTP-KRAS G12C percent of modification” value [1] was “C (10%≤percent of modification <50%)”, the “GppNHp-KRAS G12C percent of modification” value [2] was “C (10%≤percent of modification <50%)” and the “GDP-KRAS G12C percent of modification” value [3] was “A (percent of modification ≥70%)”. For the same compound, the pIC50 [4] was 6.00 to 7.00 and the pIC50 [5] was ≥ 6.30.
